According to ChEMBL document CHEMBL1201862, “PubChem BioAssay data set” (2004):
Active and inactive are the calls of the source.

Legend:
[1] = molecular target: Potassium voltage-gated channel subfamily KQT member 2 (Rattus norvegicus, UniProt O88943); assay: KCNQ2 potassium channel inhibitors, dose response, cell-based, automated electrophysiology, set II, rat KCNQ2 (AID 588637); type: functional
[2] = molecular target: T1, Histone-lysine N-methyltransferase NSD2 (Homo sapiens, UniProt O96028); type: biochemical
T1 sequence (O96028 whole entry): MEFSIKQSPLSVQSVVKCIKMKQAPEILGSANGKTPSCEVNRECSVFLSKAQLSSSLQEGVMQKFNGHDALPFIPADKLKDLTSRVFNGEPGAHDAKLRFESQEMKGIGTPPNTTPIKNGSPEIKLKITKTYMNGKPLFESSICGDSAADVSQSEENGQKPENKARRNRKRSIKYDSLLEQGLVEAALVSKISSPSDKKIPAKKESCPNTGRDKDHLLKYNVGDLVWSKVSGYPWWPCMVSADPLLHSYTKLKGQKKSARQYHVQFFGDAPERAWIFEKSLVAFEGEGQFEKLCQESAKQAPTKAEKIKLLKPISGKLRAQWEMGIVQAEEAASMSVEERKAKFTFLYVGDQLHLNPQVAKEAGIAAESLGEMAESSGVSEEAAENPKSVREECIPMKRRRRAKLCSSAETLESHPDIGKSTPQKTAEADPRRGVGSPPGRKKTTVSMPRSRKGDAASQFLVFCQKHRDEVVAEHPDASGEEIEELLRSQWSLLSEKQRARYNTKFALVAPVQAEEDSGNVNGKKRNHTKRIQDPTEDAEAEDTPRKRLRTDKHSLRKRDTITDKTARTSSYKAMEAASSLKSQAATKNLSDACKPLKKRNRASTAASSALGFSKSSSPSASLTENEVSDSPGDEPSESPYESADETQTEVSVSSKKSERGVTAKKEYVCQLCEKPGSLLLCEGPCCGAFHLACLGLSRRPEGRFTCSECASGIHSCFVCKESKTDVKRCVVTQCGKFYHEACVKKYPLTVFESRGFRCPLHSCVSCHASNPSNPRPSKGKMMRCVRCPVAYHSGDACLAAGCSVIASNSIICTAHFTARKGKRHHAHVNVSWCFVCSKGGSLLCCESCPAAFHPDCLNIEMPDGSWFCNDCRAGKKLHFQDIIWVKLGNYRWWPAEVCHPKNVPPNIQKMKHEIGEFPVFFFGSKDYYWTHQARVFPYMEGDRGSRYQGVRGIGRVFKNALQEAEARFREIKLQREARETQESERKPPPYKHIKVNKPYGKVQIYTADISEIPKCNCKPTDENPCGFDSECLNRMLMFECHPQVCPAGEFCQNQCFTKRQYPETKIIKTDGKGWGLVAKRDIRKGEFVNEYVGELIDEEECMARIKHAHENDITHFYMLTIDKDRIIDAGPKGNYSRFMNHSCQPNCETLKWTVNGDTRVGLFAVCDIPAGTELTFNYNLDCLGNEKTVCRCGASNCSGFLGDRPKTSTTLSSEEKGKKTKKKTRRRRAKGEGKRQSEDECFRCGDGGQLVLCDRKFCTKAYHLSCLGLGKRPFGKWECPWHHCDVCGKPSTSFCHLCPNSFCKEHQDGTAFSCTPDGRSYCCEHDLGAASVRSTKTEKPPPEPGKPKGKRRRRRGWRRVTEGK

Paired box protein Pax-8 = Paired box protein Pax-8 (Homo sapiens, UniProt Q06710); assay: inhibitors of PAX8-driven TPO luciferase reporter, dose response, RMG-I cells, cherry-pick (AID 687027); type: functional, cell-based;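 further: luciferase reporter driven by Pax8 target thyroperoxidase promoter measured by SteadyGlo luminescence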
[3] = molecular target: Mitochondrial peptide methionine sulfoxide reductase (Bos taurus, UniProt P54149); assay: Absorbance-based biochemical high throughput dose response assay for activators of Methionine sulfoxide reductase A (MsrA).; type: functional
[4] = molecular target: Tyrosyl-DNA phosphodiesterase 2 (Homo sapiens, UniProt O95551); assay: human TDP2 enzyme inhibitors, dose response, biochemical, epi absorbance, IC50 (AID 743297)
[5] = molecular target: Induced myeloid leukemia cell differentiation protein Mcl-1 (Homo sapiens, UniProt Q07820); type: functional
[6] = Luminescence Cell-Based Dose Response HTS to Identify Inhibitors of 5'UTR Stem-Loop Driven Prion Protein mRNA Translation in H4 Neuroglioblastoma Cells. [Related pubchem assays: 1827 (Project Summary), 1813 (Primary HTS)]; type: functional
[7] = inhibitors of SNCA 5'UTR-driven reporter translation, confirmation, H4 neuroglioma cells, luminescence (AID 1988); type: functional, cell-based
[8] = inhibitors of firefly luciferase expression or activity, dose response, H4 neuroglioma cells, luminescence (AID 1990); type: functional, cell-based
[9] = AlphaScreen signal interference compounds, dose response, artefact control for ARNT-TACC3 interaction inhibitor project, biochemical, luminescence, cherry-pick (AID 651705); type: functional;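 further: AlphaScreen bead proximity signal that flags compounds interfering with the detection technology; potency reflects signal decrease which marks the compound as an assay artifact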
[10] = molecular target: T2, ATP-dependent translocase ABCB1 (Homo sapiens, UniProt P08183); assay: ABCB1 efflux inhibitor potency, dose response, Jurkat-DNR cells, JC-1, flow cytometry, set 2 (AID 504569); type: functional; conditions: read-out: EC50_MICROM_;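 further: potency of pump inhibitors that raise cellular JC-1 green fluorescence up to the nicardipine level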
[11] = molecular target: T2, ATP-dependent translocase ABCB1; assay: ABCG2 efflux pump inhibitor potency, dose response, Ig-MXP3 cells, JC-1, flow cytometry, set 2 (AID 504566); type: functional; conditions: read-out: EC50_MICROM_;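 further: flow cytometry median green fluorescence of retained JC-1 dye; potency of efflux pump inhibition measured as rising substrate retention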
[12] = molecular target: T3, Low molecular weight phosphotyrosine protein phosphatase (Homo sapiens, UniProt P24666); type: functional; conditions: read-out: IC50_Mean
[13] = molecular target: T4, Tyrosine-protein phosphatase non-receptor type 22 (Homo sapiens, UniProt Q9Y2R2); assay: LYP phosphatase inhibition for selectivity, dose response, selectivity assay for LMPTP inhibitor project, biochemical, fluorescence, LYP catalytic domain (AID 652006); type: functional; conditions: read-out: IC50_Mean
T4 sequence (Q9Y2R2 whole entry): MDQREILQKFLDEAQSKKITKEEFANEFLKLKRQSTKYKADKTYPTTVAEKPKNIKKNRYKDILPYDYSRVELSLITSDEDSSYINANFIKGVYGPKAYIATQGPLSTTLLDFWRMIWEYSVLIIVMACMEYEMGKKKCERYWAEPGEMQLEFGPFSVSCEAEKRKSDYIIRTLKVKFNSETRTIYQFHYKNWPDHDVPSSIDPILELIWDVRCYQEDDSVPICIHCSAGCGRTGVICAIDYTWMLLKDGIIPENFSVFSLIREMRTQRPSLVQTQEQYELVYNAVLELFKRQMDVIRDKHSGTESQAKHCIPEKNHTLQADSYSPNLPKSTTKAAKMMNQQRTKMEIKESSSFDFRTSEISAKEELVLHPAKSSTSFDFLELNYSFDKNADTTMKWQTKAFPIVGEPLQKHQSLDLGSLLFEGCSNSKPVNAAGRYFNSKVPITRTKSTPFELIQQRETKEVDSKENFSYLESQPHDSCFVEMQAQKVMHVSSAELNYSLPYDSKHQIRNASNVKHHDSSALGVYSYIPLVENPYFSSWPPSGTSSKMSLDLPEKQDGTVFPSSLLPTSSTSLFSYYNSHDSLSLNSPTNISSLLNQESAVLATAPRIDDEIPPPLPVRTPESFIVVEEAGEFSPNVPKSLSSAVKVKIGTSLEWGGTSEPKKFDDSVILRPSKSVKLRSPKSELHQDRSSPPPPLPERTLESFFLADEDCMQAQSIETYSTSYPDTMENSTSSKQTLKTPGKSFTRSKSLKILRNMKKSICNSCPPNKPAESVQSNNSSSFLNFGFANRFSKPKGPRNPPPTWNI

[14] = molecular target: T3, Low molecular weight phosphotyrosine protein phosphatase; type: functional; conditions: read-out: IC50_Mean; remark: listed apart in the source
[15] = molecular target: Platelet-activating factor acetylhydrolase (Mus musculus, UniProt Q60963); assay: Late stage assay provider results from the probe development effort to identify inhibitors of pPAFAH: fluorescence-based dose-response biochemical gel-based competitive Activity-Based Protein Profiling (ABPP) assay for SAR compounds.; type: functional
[16] = ARNT/TACC3 interaction disruptors, potency, confirmation, biochemical, AlphaScreen, cherry-picked samples (AID 651703); type: functional, Homo sapiens;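 further: His-tagged ARNT PAS-B domain paired with GST-TACC3 E629A dimer coactivator fragment; potency of inhibitors that break up the complex and lower AlphaScreen signal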

T3 sequence (P24666 whole entry, the tested form may be a part): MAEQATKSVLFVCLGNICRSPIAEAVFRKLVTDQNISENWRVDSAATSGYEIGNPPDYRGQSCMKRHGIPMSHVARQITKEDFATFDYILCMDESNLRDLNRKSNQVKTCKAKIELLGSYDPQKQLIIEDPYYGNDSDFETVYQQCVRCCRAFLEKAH
T2 sequence (P08183 whole entry): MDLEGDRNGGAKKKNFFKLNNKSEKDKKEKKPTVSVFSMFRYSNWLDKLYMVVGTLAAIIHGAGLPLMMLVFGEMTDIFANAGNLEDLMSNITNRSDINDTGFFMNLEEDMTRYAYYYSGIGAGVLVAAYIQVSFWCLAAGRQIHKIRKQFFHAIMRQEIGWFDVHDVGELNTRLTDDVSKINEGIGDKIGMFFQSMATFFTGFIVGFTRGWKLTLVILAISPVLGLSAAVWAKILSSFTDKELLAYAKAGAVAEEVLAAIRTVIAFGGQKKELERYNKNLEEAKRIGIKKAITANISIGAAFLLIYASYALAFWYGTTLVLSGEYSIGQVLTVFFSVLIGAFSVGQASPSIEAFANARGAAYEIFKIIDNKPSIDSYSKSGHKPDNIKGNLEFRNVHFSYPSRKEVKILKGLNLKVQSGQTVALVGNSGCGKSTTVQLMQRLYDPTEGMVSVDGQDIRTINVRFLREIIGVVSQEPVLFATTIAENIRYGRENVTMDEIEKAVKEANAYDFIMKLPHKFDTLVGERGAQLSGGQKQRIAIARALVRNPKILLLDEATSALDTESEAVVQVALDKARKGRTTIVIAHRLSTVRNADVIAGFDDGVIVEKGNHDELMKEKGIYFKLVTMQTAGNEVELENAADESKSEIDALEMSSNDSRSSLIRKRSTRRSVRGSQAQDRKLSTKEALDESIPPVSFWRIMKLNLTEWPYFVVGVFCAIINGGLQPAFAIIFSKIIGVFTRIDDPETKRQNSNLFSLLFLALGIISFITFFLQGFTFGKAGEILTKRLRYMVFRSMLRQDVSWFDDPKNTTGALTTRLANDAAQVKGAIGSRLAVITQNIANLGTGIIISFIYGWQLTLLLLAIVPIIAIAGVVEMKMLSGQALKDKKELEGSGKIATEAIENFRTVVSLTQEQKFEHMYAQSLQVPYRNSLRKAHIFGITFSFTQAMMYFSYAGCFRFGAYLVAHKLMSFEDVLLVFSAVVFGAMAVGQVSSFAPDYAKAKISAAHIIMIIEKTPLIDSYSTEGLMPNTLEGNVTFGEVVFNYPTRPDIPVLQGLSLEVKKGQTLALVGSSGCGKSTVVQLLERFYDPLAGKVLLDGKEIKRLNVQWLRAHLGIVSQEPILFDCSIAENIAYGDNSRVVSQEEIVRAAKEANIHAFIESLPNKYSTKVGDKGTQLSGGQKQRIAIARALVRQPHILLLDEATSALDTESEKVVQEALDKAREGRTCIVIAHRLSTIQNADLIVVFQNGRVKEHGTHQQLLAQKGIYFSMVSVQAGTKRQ
Sequence of Mitochondrial peptide methionine sulfoxide reductase (P54149 whole entry): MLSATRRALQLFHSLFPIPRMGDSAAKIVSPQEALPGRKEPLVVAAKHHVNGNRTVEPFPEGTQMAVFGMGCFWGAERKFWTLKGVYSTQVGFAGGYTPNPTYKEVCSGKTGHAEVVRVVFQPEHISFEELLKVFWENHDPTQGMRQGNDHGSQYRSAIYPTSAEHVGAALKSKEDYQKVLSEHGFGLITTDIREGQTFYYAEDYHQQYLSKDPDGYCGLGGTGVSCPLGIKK
Sequence of Induced myeloid leukemia cell differentiation protein Mcl-1 (Q07820 whole entry): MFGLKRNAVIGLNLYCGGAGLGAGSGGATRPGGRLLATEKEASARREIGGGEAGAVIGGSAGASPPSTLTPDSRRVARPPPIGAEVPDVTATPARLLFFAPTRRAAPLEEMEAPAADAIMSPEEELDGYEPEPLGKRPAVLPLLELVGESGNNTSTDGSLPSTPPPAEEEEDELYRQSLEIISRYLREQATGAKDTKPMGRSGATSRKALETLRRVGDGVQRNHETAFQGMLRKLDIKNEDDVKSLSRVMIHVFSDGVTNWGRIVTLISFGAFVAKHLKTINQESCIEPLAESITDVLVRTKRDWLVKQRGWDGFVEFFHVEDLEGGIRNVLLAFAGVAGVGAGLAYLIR
Sequence of Paired box protein Pax-8 (Q06710 whole entry): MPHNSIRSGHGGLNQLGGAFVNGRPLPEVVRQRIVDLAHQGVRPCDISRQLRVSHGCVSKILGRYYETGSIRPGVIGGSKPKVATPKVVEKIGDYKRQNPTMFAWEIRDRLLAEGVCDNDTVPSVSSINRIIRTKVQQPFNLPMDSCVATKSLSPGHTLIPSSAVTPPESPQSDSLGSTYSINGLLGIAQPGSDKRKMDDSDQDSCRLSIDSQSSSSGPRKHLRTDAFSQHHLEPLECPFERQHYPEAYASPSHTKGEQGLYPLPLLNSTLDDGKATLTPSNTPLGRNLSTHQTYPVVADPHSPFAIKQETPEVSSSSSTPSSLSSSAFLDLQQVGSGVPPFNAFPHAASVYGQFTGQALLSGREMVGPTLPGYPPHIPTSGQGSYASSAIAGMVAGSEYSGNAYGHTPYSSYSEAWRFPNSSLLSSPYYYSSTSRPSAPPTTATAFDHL
Sequence of Platelet-activating factor acetylhydrolase (Q60963 whole entry, the tested form may be a part): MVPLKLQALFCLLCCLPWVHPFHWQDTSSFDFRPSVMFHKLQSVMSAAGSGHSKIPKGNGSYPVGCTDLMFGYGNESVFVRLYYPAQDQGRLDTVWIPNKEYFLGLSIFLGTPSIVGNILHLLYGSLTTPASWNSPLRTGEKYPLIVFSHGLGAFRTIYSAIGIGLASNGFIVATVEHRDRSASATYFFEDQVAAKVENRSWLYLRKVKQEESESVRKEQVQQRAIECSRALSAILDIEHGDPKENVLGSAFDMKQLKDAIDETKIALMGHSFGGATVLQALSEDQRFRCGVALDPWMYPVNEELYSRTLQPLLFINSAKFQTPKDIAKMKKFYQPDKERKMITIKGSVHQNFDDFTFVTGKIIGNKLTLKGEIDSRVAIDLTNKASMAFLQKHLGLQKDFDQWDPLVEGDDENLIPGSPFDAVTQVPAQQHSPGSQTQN
Sequence of Tyrosyl-DNA phosphodiesterase 2 (O95551 whole entry): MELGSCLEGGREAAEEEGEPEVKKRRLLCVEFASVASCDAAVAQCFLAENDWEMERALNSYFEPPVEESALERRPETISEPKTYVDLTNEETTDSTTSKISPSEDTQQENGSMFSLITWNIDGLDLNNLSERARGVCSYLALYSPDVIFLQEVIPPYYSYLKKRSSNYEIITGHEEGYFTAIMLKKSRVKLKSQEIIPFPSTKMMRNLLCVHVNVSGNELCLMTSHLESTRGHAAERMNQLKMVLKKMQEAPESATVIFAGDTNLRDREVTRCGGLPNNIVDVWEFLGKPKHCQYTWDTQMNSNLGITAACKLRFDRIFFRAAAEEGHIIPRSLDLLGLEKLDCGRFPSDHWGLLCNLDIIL
Sequence of Potassium voltage-gated channel subfamily KQT member 2 (O88943 whole entry): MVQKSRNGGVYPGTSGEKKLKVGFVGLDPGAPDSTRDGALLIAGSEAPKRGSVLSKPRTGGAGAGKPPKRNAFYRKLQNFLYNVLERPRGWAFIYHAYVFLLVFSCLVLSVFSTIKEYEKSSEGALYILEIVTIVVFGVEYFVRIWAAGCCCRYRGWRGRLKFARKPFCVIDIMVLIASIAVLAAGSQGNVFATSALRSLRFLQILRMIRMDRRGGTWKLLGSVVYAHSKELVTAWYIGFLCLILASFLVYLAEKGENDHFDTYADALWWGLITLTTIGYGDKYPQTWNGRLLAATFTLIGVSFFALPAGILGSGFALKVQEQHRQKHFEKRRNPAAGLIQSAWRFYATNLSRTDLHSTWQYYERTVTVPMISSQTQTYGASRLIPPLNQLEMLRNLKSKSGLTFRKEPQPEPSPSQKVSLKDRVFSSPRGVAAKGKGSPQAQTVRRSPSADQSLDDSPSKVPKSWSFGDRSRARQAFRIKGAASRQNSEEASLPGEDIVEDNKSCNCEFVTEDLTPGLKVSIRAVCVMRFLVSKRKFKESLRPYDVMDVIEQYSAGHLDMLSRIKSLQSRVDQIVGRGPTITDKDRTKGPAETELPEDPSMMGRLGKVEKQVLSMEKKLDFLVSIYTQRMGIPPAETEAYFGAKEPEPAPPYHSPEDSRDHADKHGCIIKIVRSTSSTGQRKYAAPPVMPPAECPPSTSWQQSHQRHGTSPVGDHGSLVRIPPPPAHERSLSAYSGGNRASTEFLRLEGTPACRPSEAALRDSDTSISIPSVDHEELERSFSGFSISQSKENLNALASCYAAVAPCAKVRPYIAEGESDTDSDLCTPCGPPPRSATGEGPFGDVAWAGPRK

Compound: O=C(COc1ccc(F)cc1)N(c1ccccn1)C1CCCCC1
- IC50 [1]: 1.49 µM (active)

Compound: NC1=CC(=O)C(=O)c2cccnc21
- AC50 [2]: 0.546 µM (active)
- AC50 (Paired box protein Pax-8): 10.5 µM (active)
- EC50 [3]: > 34.6 µM (inactive)
- IC50 [4]: 5.99 µM (active)

Compound: COc1cc2c(cc1O)C[C@H]1NCCc3cc4c(c-2c31)OCO4
- IC50 [5]: 5.61 µM (active)
- EC50 [6]: 85.6 µM (active)
- EC50 [7]: > 120 µM (not active)
- EC50 [8]: 13.2 µM (active)
- AC50 [9]: 84.2 µM (active)

Compound: O=C(c1ccoc1)N1CCN(c2cc(-c3cccnc3)nc3cc(-c4cccc(Cl)c4)nn23)CC1
- EC50 [10]: 0.97 µM (active)
- EC50 [11]: 0.26 µM (active)

Compound: CC(=O)Nc1ccc(CNc2nc(NCc3cccs3)nc3ccsc23)cc1
- IC50 [12]: 15.5 µM (active)
- IC50 [13]: 49.5 µM (inactive)
- IC50 [14]: 13.6 µM (active)

Compound: Cc1cc(N2CCN(C(=O)Oc3ccc(C(F)(F)F)cc3)CC2)c2ccccc2n1
- IC50 [15]: 0.041 µM (active)

Compound: CN1CCN(/N=C/c2nc(-c3ccccc3Cl)n3ccccc23)CC1
- AC50 [16]: 75.6 µM (active)
